Columns and labels:
ryegrass, Italian [1] = assay: Test C preemergence; type: in vivo, Lolium multiflorum
Method in brief: (§1)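 Seeds sown in loam soil–sand blend received a directed preemergence soil spray of test chemical in non-phytotoxic solvent with surfactant; postemergence plants (2–10 cm, one- to two-leaf stage) were sprayed with the same formulation. Greenhouse-held 10 days, then visually rated for injury versus untreated controls, 0 (no effect) to 100 (complete control).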

blackgrass [2] = assay: Test C preemergence; type: in vivo, Alopecurus myosuroides
Method in brief: as §1

oat, wild [3] = assay: Test C postemergence; type: in vivo, Avena fatua; settings: 10 days, 0 to 100 scale (0 no effect, 100 complete control)
Method in brief: as §1

oat, wild [4] = assay: Test C preemergence; type: in vivo, Avena fatua
Method in brief: as §1

soybean [5] = assay: Test C postemergence; type: in vivo, Glycine max; settings: 10 days, 0 to 100 scale (0 no effect, 100 complete control)
Method in brief: as §1

pigweed, palmer [6] = assay: Test C preemergence; type: in vivo, Amaranthus palmeri
Method in brief: as §1

corn [7] = assay: Test C preemergence; type: in vivo, Zea mays
Method in brief: as §1

ryegrass, Italian [8] = assay: Test C postemergence; type: in vivo, Lolium multiflorum; settings: 10 days, 0 to 100 scale (0 no effect, 100 complete control)
Method in brief: as §1

foxtail, giant [9] = assay: Test C preemergence; type: in vivo, Setaria faberi
Source text: (§2) Seeds of plant species selected from barnyardgrass (Echinochloa crusgalli), blackgrass (Alopecurus myosuroides), corn (Zea mays), foxtail, giant (giant foxtail, Setaria faberi), green foxtail (Setaria viridis), goosegrass (Eleusine indica), kochia (Bassia scoparia), oat, wild (wild oat, Avena fatua), pigweed, palmer (palmer amaranth, palmer pigweed, Amaranthus palmeri), Pigweed, Redroot (redroot pigweed, Amaranthus retroflexus), ragweed (common ragweed, Ambrosia artemisiifolia), ryegrass, Italian ([…] ryegrass, Lolium multiflorum), soybean (Glycine max), and wheat (Triticum aestivum) were planted into a blend of loam soil and sand and treated preemergence with a directed soil spray using test chemicals formulated in a non-phytotoxic solvent mixture which included a surfactant. At the same time, plants selected from these crops and weed species and also galium (catchweed bedstraw, Galium aparine) and horseweed (Erigeron canadensis) were planted in pots containing the same blend of loam soil and sand and treated with postemergence applications of test chemicals formulated in the same manner. Plants ranged in height from 2 to 10 cm and were in the one- to two-leaf stage for the postemergence treatment. Treated plants and untreated controls were maintained in a greenhouse for 10 days, after which time all treated plants were compared to untreated controls and visually evaluated for injury. Plant response ratings, summarized in Table C, are based on a 0 to 100 scale where 0 is no effect and 100 is complete control. A dash (-) response means no test result.

wheat [10] = assay: Test C postemergence; type: in vivo, Triticum aestivum; settings: 10 days, 0 to 100 scale (0 no effect, 100 complete control)
Method in brief: as §1

sedge, umbrella = assay: Test D flooded paddy test; type: in vivo, Cyperus difformis; settings: 250 g ai/ha, applied to paddy water, visual rating after 13 to 14 days, scale 0 to 100 (0 no effect, 100 complete control)
Method in brief: (§3)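 Compounds go straight into paddy water over 2-leaf plants in pots flooded to 3 cm. Greenhouse holding lasts 13 to 14 days. Injury is scored by eye against controls from 0 (none) to 100 (complete control).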

kochia [11] = assay: Test C postemergence; type: in vivo, Bassia scoparia; settings: 10 days, 0 to 100 scale (0 no effect, 100 complete control)
Method in brief: as §1

blackgrass [12] = assay: Test C postemergence; type: in vivo, Alopecurus myosuroides; settings: 10 days, 0 to 100 scale (0 no effect, 100 complete control)
Method in brief: as §1

ragweed [13] = assay: Test C preemergence; type: in vivo, Ambrosia artemisiifolia
Method in brief: as §1

wheat [14] = assay: Test C preemergence; type: in vivo, Triticum aestivum
Method in brief: as §1

rice = assay: Test D flooded paddy test; type: in vivo, Oryza sativa; settings: 250 g ai/ha, applied to paddy water, visual rating after 13 to 14 days, scale 0 to 100 (0 no effect, 100 complete control)
Method in brief: as §3

ragweed [15] = assay: Test C postemergence; type: in vivo, Ambrosia artemisiifolia; settings: 10 days, 0 to 100 scale (0 no effect, 100 complete control)
Method in brief: as §1

barnyardgrass [16] = assay: Test C preemergence; type: in vivo, Echinochloa crusgalli
Method in brief: as §1

galium = assay: Test C postemergence; type: in vivo, Galium aparine; settings: 10 days, 0 to 100 scale (0 no effect, 100 complete control)
Method in brief: as §1

barnyardgrass [17] = assay: Test D flooded paddy test; type: in vivo, Echinochloa crus-galli; settings: 250 g ai/ha, applied to paddy water, visual rating after 13 to 14 days, scale 0 to 100 (0 no effect, 100 complete control)
Method in brief: as §3

barnyardgrass [18] = assay: Test C postemergence; type: in vivo, Echinochloa crusgalli; settings: 10 days, 0 to 100 scale (0 no effect, 100 complete control)
Method in brief: as §1

ducksalad = assay: Test D flooded paddy test; type: in vivo, Heteranthera limosa; settings: 250 g ai/ha, applied to paddy water, visual rating after 13 to 14 days, scale 0 to 100 (0 no effect, 100 complete control)
Method in brief: as §3

pigweed, palmer [19] = assay: Test C postemergence; type: in vivo, Amaranthus palmeri; settings: 10 days, 0 to 100 scale (0 no effect, 100 complete control)
Method in brief: as §1

foxtail, giant [20] = assay: Test C postemergence; type: in vivo, Setaria faberi; settings: 10 days, 0 to 100 scale (0 no effect, 100 complete control)
Source text: as §2

horseweed = assay: Test C postemergence; type: in vivo, Erigeron canadensis; settings: 10 days, 0 to 100 scale (0 no effect, 100 complete control)
Method in brief: as §1

corn [21] = assay: Test C postemergence; type: in vivo, Zea mays; settings: 10 days, 0 to 100 scale (0 no effect, 100 complete control)
Method in brief: as §1

kochia [22] = assay: Test C preemergence; type: in vivo, Bassia scoparia
Method in brief: as §1

soybean [23] = assay: Test C preemergence; type: in vivo, Glycine max
Method in brief: as §1

[24] = 500 g ai/ha, preemergence, 0 to 100 scale (0 no effect, 100 complete control)
[25] = Preemergence, 125 g ai/ha, 0 to 100 scale, 0 no effect, 100 complete control

CCc1ncn(-c2cc(C(=O)N3CC(C(F)(F)F)Oc4c(C)cccc43)ccn2)n1 (stereo not shown) [Compound 318]
Ryegrass, Italian plant response rating (ryegrass, Italian [1]; [24]): 100 | Plant response rating, Ryegrass, Italian (ryegrass, Italian [1]; [25]): 90 | Blackgrass plant response rating (blackgrass [2]; [24]): 90 | Plant response rating, Blackgrass (blackgrass [2]; [25]): 80 | Plant response rating, Oat, Wild (oat, wild [3]; 500 g ai/ha, postemergence): 80 | Plant response rating, Oat, Wild (oat, wild [3]; Postemergence, 125 g ai/ha): 40 | Oat, Wild plant response rating (oat, wild [4]; [24]): 90 | Plant response rating, Oat, Wild (oat, wild [4]; [25]): 50 | Plant response rating, Soybean (soybean [5]; 500 g ai/ha, postemergence): 100 | Plant response rating, Soybean (soybean [5]; Postemergence, 125 g ai/ha): 100 | Pigweed, Palmer plant response rating (pigweed, palmer [6]; [24]): 90 | Plant response rating, Pigweed, Palmer (pigweed, palmer [6]; [25]): 50 | Corn plant response rating (corn [7]; [24]): 80 | Plant response rating, Corn (corn [7]; [25]): 30 | Plant response rating, Ryegrass, Italian (ryegrass, Italian [8]; 500 g ai/ha, postemergence): 100 | Plant response rating, Ryegrass, Italian (ryegrass, Italian [8]; Postemergence, 125 g ai/ha): 60 | Foxtail, Giant plant response rating (foxtail, giant [9]; [24]): 100 | Plant response rating, Foxtail, Giant (foxtail, giant [9]; [25]): 100 | Plant response rating, Wheat (wheat [10]; 500 g ai/ha, postemergence): 50 | Plant response rating, Wheat (wheat [10]; Postemergence, 125 g ai/ha): 40 | Plant response rating, Sedge, Umbrella (Flood) (sedge, umbrella): 45 | Plant response rating, Kochia (kochia [11]; 500 g ai/ha, postemergence): 80 | Plant response rating, Kochia (kochia [11]; Postemergence, 125 g ai/ha): 50 | Plant response rating, Blackgrass (blackgrass [12]; 500 g ai/ha, postemergence): 90 | Plant response rating, Blackgrass (blackgrass [12]; Postemergence, 125 g ai/ha): 60 | Ragweed plant response rating (ragweed [13]; [24]): 40 | Plant response rating, Ragweed (ragweed [13]; [25]): 0 | Wheat plant response rating (wheat [14]; [24]): 90 | Plant response rating, Wheat (wheat [14]; [25]): 30 | Plant response rating, Rice (Flood) (rice): 15 | Plant response rating, Ragweed (ragweed [15]; 500 g ai/ha, postemergence): 30 | Plant response rating, Ragweed (ragweed [15]; Postemergence, 125 g ai/ha): 0 | Barnyardgrass plant response rating (barnyardgrass [16]; [24]): 100 | Plant response rating, Barnyardgrass (barnyardgrass [16]; [25]): 90 | Plant response rating, Galium (galium; 500 g ai/ha, postemergence): 100 | Plant response rating, Galium (galium; Postemergence, 125 g ai/ha): 100 | Plant response rating, Barnyardgrass (Flood) (barnyardgrass [17]): 45 | Plant response rating, Barnyardgrass (barnyardgrass [18]; 500 g ai/ha, postemergence): 70 | Plant response rating, Barnyardgrass (barnyardgrass [18]; Postemergence, 125 g ai/ha): 50 | Plant response rating, Ducksalad (Flood) (ducksalad): 10 | Plant response rating, Pigweed, Palmer (pigweed, palmer [19]; 500 g ai/ha, postemergence): 60 | Plant response rating, Pigweed, Palmer (pigweed, palmer [19]; Postemergence, 125 g ai/ha): 20 | Plant response rating, Foxtail, Giant (foxtail, giant [20]; 500 g ai/ha, postemergence): 90 | Plant response rating, Foxtail, Giant (foxtail, giant [20]; Postemergence, 125 g ai/ha): 90 | Plant response rating, Horseweed (horseweed; 500 g ai/ha, postemergence): 20 | Plant response rating, Horseweed (horseweed; Postemergence, 125 g ai/ha): 0 | Plant response rating, Corn (corn [21]; 500 g ai/ha, postemergence): 80 | Plant response rating, Corn (corn [21]; Postemergence, 125 g ai/ha): 70 | Kochia plant response rating (kochia [22]; [24]): 90 | Plant response rating, Kochia (kochia [22]; [25]): 70 | Soybean plant response rating (soybean [23]; [24]): 100 | Plant response rating, Soybean (soybean [23]; [25]): 30

From patent US20260262643A1, “HERBICIDAL BENZOXAZINES” (FMC CORPORATION, priority 2022, published 2026)
